Measured values from article PMC10322702 (Nature Chemistry, 2023).
Several values for one entry are separate records, joined by “and”; a condition that tells them apart may be missing. Equal entries are not always repeated. Entries after “also recorded” stand apart in the source; their conditions may differ. Numbered stars: 1 amine (or outer) side, 2 acyl side, 3 side chain; on linkers, the order of the positions; unused ones are H or OH. Bridge positions count the residues as written; N and C are the ends. Square brackets hold non-standard residues; d marks the D form. Peptide text beside a SMILES is read from it. Acbc(cis-1,3) = O=C([C@H]1C[C@@H](N[*:1])C1)[*:2]

How the values were obtained:
[1] = Serum stability assay in human serum (LC/MS)
[2] = Cytotoxicity of GM4 and related macrocycles; assay type: cell-based; settings: at concentrations as high as 100 µM
SARS-CoV-2 M^pro [3] = target: T1, SARS-CoV-2 M^pro (Severe acute respiratory syndrome coronavirus 2, UniProt P0DTD1); test: biochemical; assay type: biochemical
M^pro = M^pro (Severe acute respiratory syndrome coronavirus 2, UniProt P0DTD1); assay type: biochemical, SARS-CoV-2
[4] = Antiviral activity in cells of GM4 and related macrocycles; assay type: cell-based
SARS-CoV-2 M^pro [5] = target: T1, SARS-CoV-2 M^pro; test: biochemical; assay type: binding; settings: for kon: read-out: ka (kinetic association)
[6] = human serum (Cosmo Bio, 12181201); settings: 37 °C, up to 100 h
[7] = read-out: EC50 (antiviral activity in cells); cited from earlier work
[8] = tested on: recombinant SARS-CoV-2 M^pro; test: M^pro 6 mg ml^–1 in 20 mM HEPES (pH 7.5) and 50 mM NaCl, co-crystallization with GM4; settings: SARS-CoV-2, room temperature, crystals grown at 20 °C, up to one week
Vero E6 cells = tested on: Vero E6 cells; set-up: method as in PMID 33786375; settings: read-out: CC50 (half-maximal cytotoxic concentration); cited from earlier work
[9] = 37 °C, incubation time 1 h, relative to 0 h = 100%, technical replicates, 60 min
[10] = 37 °C, incubation time 4 h, relative to 0 h = 100%, technical replicates, 240 min
[11] = 37 °C, incubation time 8 h, relative to 0 h = 100%, technical replicates, 480 min
[12] = 37 °C, incubation time 24 h, relative to 0 h = 100%, technical replicates, 1440 min
[13] = 37 °C, incubation time 50 h, relative to 0 h = 100%, technical replicates, 3000 min
[14] = 37 °C, incubation time 100 h, relative to 0 h = 100%, technical replicates, 6000 min
[15] = human, Remaining peptide (%), 37 °C, incubation time 1 h, relative to 0 h = 100%, technical replicates
[16] = human, Remaining peptide (%), 37 °C, incubation time 4 h, relative to 0 h = 100%, technical replicates
[17] = human, Remaining peptide (%), 37 °C, incubation time 8 h, relative to 0 h = 100%, technical replicates
[18] = human, Remaining peptide (%), 37 °C, incubation time 24 h, relative to 0 h = 100%, technical replicates
[19] = human, Remaining peptide (%), 37 °C, incubation time 50 h, relative to 0 h = 100%, technical replicates

Molecule	Remaining peptide (%) [1, 9]	Remaining peptide (%) [1, 10]	Remaining peptide (%) [1, 11]	Remaining peptide (%) [1, 12]	Remaining peptide (%) [1, 13]	Remaining peptide (%) [1, 14]	half-life at 10 μM ([1]; human) [h]	remaining at 1 h, 10 μM [1, 15] [%]	remaining at 4 h, 10 μM [1, 16] [%]	remaining at 8 h, 10 μM [1, 17] [%]	remaining at 24 h, 10 μM [1, 18] [%]	remaining at 50 h, 10 μM [1, 19] [%]	IC50 (SARS-CoV-2 M^pro [3]) [nM]	kon (SARS-CoV-2 M^pro [5]) [M⁻¹ s⁻¹]	cleaved bond [6]	other results
CC(C)C[C@@H]1NC(=O)[C@H](CC(N)=O)NC(=O)[C@H](CC(C)C)NC(=O)[C@H]2C[C@H](C2)NC(=O)[C@H](Cc2c[nH]cn2)NC(=O)[C@H](Cc2ccccc2)NC(=O)[C@@H](Cc2ccc(O)cc2)NC(=O)CSC[C@H](C(N)=O)NC(=O)CNC(=O)[C@@H]2CCCN2C(=O)[C@H](CCCNC(=N)N)NC(=O)[C@H](Cc2ccc(O)cc2)NC(=O)CNC1=O [GM4] ({CH2CO}-[dY]FH[Acbc(cis-1,3)]LNLGYRPG[dC]-NH2; thioether N-13)	104.39% and 106.19%	95.61% and 97.60%	99.57% and 100.45%	95.67% and 101.18%	76.05% and 78.63%	55.56% and 56.89%	126	104	95.7	97.7	82.2	67.9	50	100000	–	fold increase in serum (proteolytic) stability compared to alanine-substituted variant ([1]; GM4 vs GM4γ^14A): 12 fold; remaining at 100 h, 10 μM ([1]; human, Remaining peptide (%), 37 °C, incubation time 100 h, relative to 0 h = 100%, technical replicates): 55.7%; cytotoxicity [2]: no cytotoxicity; inhibition at 0.102 µM (SARS-CoV-2 M^pro [3]): 84.7%; inhibition at 0.309 µM (SARS-CoV-2 M^pro [3]): 97.9%; inhibition at 0.933 µM (SARS-CoV-2 M^pro [3]): 100%; inhibition at 2.75 µM (SARS-CoV-2 M^pro [3]): 100%; inhibition at 8.32 µM (SARS-CoV-2 M^pro [3]): 100%; hydrolysis of the peptide by M^pro (M^pro): lack of efficient GM4 hydrolysis; antiviral activity in cells [4]: do not manifest obvious antiviral activity
^AcyFHA LNLGYRPGc-NH2 ({CH2CO}-[dY]FHALNLGYRPG[dC]-NH2; thioether N-13)	–	–	–	–	–	–	–	–	–	–	–	–	–	–	F2-H3, 24 h; also recorded: L5-N6, 24 h; also recorded: P11-G12, 24 h; also recorded: G12-c13, 24 h	–
Cn1cnc(Cn2c(=O)[nH]/c(=N\c3cc4cn(C)nc4cc3Cl)n(Cc3cc(F)c(F)cc3F)c2=O)n1 [S-217622]	–	–	–	–	–	–	–	–	–	–	–	–	–	–	–	EC50 [7]: 370 nM
CC(C)C[C@@H]1NC(=O)[C@H](C)NC(=O)[C@H](Cc2c[nH]cn2)NC(=O)[C@H](Cc2ccccc2)NC(=O)[C@@H](Cc2ccc(O)cc2)NC(=O)CSC[C@H](C(N)=O)NC(=O)CNC(=O)[C@@H]2CCCN2C(=O)[C@H](CCCNC(=N)N)NC(=O)[C@H](Cc2ccc(O)cc2)NC(=O)CNC(=O)[C@H](CC(C)C)NC(=O)[C@H](CC(N)=O)NC1=O [GM4γ^14A] ({CH2CO}-[dY]FHALNLGYRPG[dC]-NH2; thioether N-13)	80.98% and 76.08%	75.33% and 71.01%	60.41% and 56.42%	37.15% and 33.37%	12.36% and 12.37%	2.74% and 5.40% and 2.53%	11	74.2	66.7	53.6	32.3	12.3	10	1.1e+06	–	Remaining peptide (%) ([1]; 37 °C, incubation time 2 h, relative to 0 h = 100%, technical replicates, 120 min): 68.35% and 66.59%; remaining at 2 h, 10 μM ([1]; human, Remaining peptide (%), 37 °C, incubation time 2 h, relative to 0 h = 100%, technical replicates): 67.6%; inhibition at 0.209 µM (SARS-CoV-2 M^pro [3]): 100%; inhibition at 1.86 µM (SARS-CoV-2 M^pro [3]): 100%; inhibition at 5.62 µM (SARS-CoV-2 M^pro [3]): 100%; inhibition at 16.6 µM (SARS-CoV-2 M^pro [3]): 100%; inhibition at 50.1 µM (SARS-CoV-2 M^pro [3]): 100%; inhibition at […] (SARS-CoV-2 M^pro [3]): 100%; Kd (SARS-CoV-2 M^pro [5]): 2.4 nM; kd (kinetic dissociation) (SARS-CoV-2 M^pro [5]): 2.6 10^-3 s^-1
^AcyFHγ^1LNLGYRPGc-NH2 ({CH2CO}-[dY]FH[Acbc(cis-1,3)]LNLGYRPG[dC]-NH2; thioether N-13)	–	–	–	–	–	–	–	–	–	–	–	–	–	–	L5-N6, 24 h; also recorded: N6-L7, 24 h; also recorded: R10-P11, 24 h; also recorded: P11-G12, 24 h; also recorded: G12-c13, 24 h	not cleaved [8]: complete intact peptide in the active site pocket
O=c1[nH]cc(-c2cc(-c3cc(Cl)c(F)c(OCc4ccccc4Cl)c3)c(=O)n(-c3cccnc3)c2)c(=O)[nH]1 [compound 23]	–	–	–	–	–	–	–	–	–	–	–	–	–	–	–	CC50 (Vero E6 cells): 1150 nM
